From article PMC2666795, “Bacterial Genome Partitioning: N-Terminal Domain of IncC Protein Encoded by Broad-Host-Range Plasmid RK2 Modulates Oligomerisation and DNA Binding” (Journal of Molecular Biology, 2009)
One block for each molecule: values may come before it.

Assays:
IncC2 = biological target: T1, IncC2 (Escherichia coli, UniProt P07673); assay: glutaraldehyde cross-linking with the IncC1 N-terminal domain; details: 2 mM ADP, 10 mM MgCl2, 25 mM phosphate pH 7.5; nucleotide-dependent binding of NTD to IncC2
T1 construct: gene incC; short form 259 aa (IncC1 without residues 1-105), His6-tagged from modified pET28a (pGBT343), expressed in E. coli BL21, nickel-agarose; thrombin cleavage of tag described
T1 sequence (P07673 106-364): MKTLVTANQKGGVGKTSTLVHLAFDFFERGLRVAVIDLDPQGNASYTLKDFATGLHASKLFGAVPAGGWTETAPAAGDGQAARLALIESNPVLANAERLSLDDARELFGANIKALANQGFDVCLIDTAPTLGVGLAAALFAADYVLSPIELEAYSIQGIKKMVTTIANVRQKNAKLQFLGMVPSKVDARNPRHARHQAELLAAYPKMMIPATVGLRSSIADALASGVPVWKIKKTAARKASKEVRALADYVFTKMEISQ

IncC1 = biological target: T2, IncC1 (Escherichia coli, UniProt P07673); assay: velocity sedimentation (analytical ultracentrifugation), dimer formation; type: binding; details: read-out: Kapp
T2 construct: gene incC; full-length 364 aa, His6-tagged from modified pET28a (pGBT342), expressed in E. coli BL21, nickel-agarose; thrombin cleavage of tag described; monomer 40 kDa, dimer 80 kDa with ATP
T2 sequence (P07673 1-364): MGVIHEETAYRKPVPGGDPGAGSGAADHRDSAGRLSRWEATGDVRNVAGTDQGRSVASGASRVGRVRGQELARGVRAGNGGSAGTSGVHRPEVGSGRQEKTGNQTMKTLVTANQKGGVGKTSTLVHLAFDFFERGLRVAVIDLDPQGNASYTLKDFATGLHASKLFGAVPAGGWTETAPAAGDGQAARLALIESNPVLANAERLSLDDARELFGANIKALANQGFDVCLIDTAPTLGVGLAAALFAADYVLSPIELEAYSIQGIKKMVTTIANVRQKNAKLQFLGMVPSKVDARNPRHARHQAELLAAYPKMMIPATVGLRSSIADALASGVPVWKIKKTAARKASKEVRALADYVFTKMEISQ

[1] = biological target: T3, IncC2 (259 aa), short ParA protein made from the second translational start of incC of plasmid RK2 (plasmid RK2 (IncP-1), UniProt P07673 106-364); assay: cross-linking; glutaraldehyde 0-0.1%, with 2 mM ATP; 5 μg of each protein in 50 μl, 10 mM MgCl2, 25 mM phosphate buffer pH 7.5; 30 min 37 °C, then 30 min 30 °C with glutaraldehyde; SDS-PAGE, Western blot with anti-IncC; details: both partners purified
T3 construct: IncC2, the product of the second translational start of incC of plasmid RK2, 259 aa; it lacks the N-terminal domain (amino acids 1-105) of IncC1; numbers count on IncC1; also called His6-IncC2; source: E. coli BL21 (printed: C600 BL21), modified pET28a vector, purified (nickel-agarose)
T3 sequence (looked up): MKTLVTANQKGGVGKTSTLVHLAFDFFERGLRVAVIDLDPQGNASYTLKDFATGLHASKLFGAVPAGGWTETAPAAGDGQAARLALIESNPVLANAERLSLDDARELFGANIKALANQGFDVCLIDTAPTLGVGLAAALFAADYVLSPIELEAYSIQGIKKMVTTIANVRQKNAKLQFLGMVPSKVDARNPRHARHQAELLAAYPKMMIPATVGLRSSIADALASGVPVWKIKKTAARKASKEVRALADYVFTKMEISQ

[2] = biological target: the molecule itself; assay: AUC; velocity sedimentation, 30 μM IncC1 with varying ATP concentrations, with magnesium; 50 mM sodium phosphate pH 8.0, 100 mM NaCl, 40,000 rpm, 4 °C

Molecule: Nc1ncnc2c1ncn2[C@@H]1O[C@H](COP(=O)(O)OP(=O)(O)OP(=O)(O)O)[C@@H](O)[C@H]1O [ATP]
Kd (IncC1): 7.7 µM

B2: IncC1 (364 aa), long ParA protein encoded by incC of broad-host-range plasmid RK2 (natural protein, plasmid RK2 (IncP-1), UniProt P07673 1-364, looked up)
chain: MGVIHEETAYRKPVPGGDPGAGSGAADHRDSAGRLSRWEATGDVRNVAGTDQGRSVASGASRVGRVRGQELARGVRAGNGGSAGTSGVHRPEVGSGRQEKTGNQTMKTLVTANQKGGVGKTSTLVHLAFDFFERGLRVAVIDLDPQGNASYTLKDFATGLHASKLFGAVPAGGWTETAPAAGDGQAARLALIESNPVLANAERLSLDDARELFGANIKALANQGFDVCLIDTAPTLGVGLAAALFAADYVLSPIELEAYSIQGIKKMVTTIANVRQKNAKLQFLGMVPSKVDARNPRHARHQAELLAAYPKMMIPATVGLRSSIADALASGVPVWKIKKTAARKASKEVRALADYVFTKMEISQ
notes: IncC1, the product of the first translational start of incC (parA) of IncP-1 plasmid RK2, 364 aa; also called His6-IncC1; His-IncC1; source: E. coli BL21 (printed: C600 BL21), modified pET28a vector, purified (nickel-agarose)
stoichiometry N [2]: 2

The next lines start with results.

Kd (IncC1): 54 µM
Molecule: Nc1ncnc2c1ncn2[C@@H]1O[C@H](COP(=O)(O)OP(=O)(O)O)[C@@H](O)[C@H]1O [ADP]
glutaraldehyde cross-linking with the IncC1 N-terminal domain (IncC2): In the presence of either ATP or ADP, the NTD was found to interact with IncC2

binding result [1]: binds
B1: N-terminal domain of IncC1 (amino acids 1-105) (domain or fragment, plasmid RK2 (IncP-1), UniProt P07673 1-105, looked up)
chain: MGVIHEETAYRKPVPGGDPGAGSGAADHRDSAGRLSRWEATGDVRNVAGTDQGRSVASGASRVGRVRGQELARGVRAGNGGSAGTSGVHRPEVGSGRQEKTGNQT
notes: N-terminal domain of IncC1 of plasmid RK2, amino acids 1-105, 11 kDa; also called NTD; IncC1 NTD; source: E. coli, expressed from pSMB315 (pGBT340 with incC1-NTD), purified
